Experimental data reported in article PMC7351026, “Serum Half-Lives for Short- and Long-Chain Perfluoroalkyl Acids after Ceasing Exposure from Drinking Water Contaminated by Firefighting Foam” (Environmental Health Perspectives, 2020).
Like-named read-outs stand apart in the source and are kept apart here.

Legend:
[1] = Population average serum elimination rate and half-life (linear mixed model, one compartment, first-order); conditions: for half-life: serum, oral
Experimental: (§1) Serum PFAS concentrations were log-transformed. Time was calculated as the elapsed days between supply of clean bottled water and […] blood sampling. We assumed one compartment, first-order elimination kinetics. In this kinetic model, the body is considered as one homogeneous volume in which mixing is instantaneous and from which PFAS could be absorbed, transferred, and eliminated according to the rate of elimination that is proportional to the concentration of PFAS in the body. Two methods were used to estimate serum elimination rate constant (k) and half-life for each PFAS:
Briefly, in the linear mixed model In Cij=αi+tijβ+Xiβ′+εij, Cij is the serum concentration of PFAS for individual i at sampling round j; αi is the subject-specific intercept (random intercept); tij is the time; β is the average slope; Xi is a vector of fixed covariates for individual i; β′ stands for the fixed effect coefficients; and εij is the random error term. We modified the model by excluding the subject-specific slope (random slope) due to a failure to converge after inclusion, which may be due to the limited number of study subjects. The negative value of the average slope ( −β ) is the population average k, and average half-life is calculated as ln2/k .
In the linear mixed model, we included only age and sex as covariates. We based covariate selection on factors that could conceivably confound the PFAS half-life estimation. Working task, duration of employment, number of glasses of water per day, blood donation, and pregnancy before mitigation of PFAS exposure from drinking water can influence the initial serum levels but would not be expected to influence the PFAS half-life.
A sensitivity analysis was performed using the same linear mixed model but with Cij as the serum levels after subtracting general background levels (using the median levels obtained from the nonexposed reference population). If the serum PFAS levels after subtraction were lower than the half of the background levels, they were replaced with half of the background levels.

[2] = Individual serum elimination rate and half-life (linear regression per employee); conditions: for half-life: human, serum, oral, HL (half-life); for half-life / Elimination rate / HL (half-life): individual estimate;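 on HL (half-life): half-life in years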
Experimental: as §1
Method 2: For estimation of individual k, linear regression was used to derive the slope ( β ) of the logarithm of serum concentrations vs. time for each employee. The negative value of the slope ( −β ) for each individual was equivalent to the individual k, and individual serum elimination half-life was calculated as ln2/k for each PFAS. If β was positive (i.e., PFAS concentrations tended to increase over the five samplings), the half-life was not calculated.

[3] = Urine/serum ratio in paired samples; type: in vivo, human; conditions: for Personal average urine/serum ratio, median (range): mean of four paired samplings per subject, 17 airport employees
Experimental: Urinary PFAS concentrations were specific-gravity adjusted. The ratio of urine and serum concentration for each PFAS (urine/serum ratio) at each sampling was calculated based on PFAS concentrations in paired serum and urine samples from 17 employees. Then the personal average urine/serum ratio was calculated using the mean value of repeated samplings for each employee.

[4] = cited from earlier work; for Estimated half-life (geometric mean): Chinese population, from renal clearance of single paired serum and urine samples, ref Zhang et al. 2013; for Average half-life: highly exposed general population from Ronneby, Sweden, 108 Swedes, 5 y follow-up, ref Li et al. 2019
[5] = population average, model with original serum levels, age and sex as covariates
[6] = population average, model with serum levels after subtraction of background exposure (sensitivity analysis)

SMILES: O=C(O)C(F)(F)C(F)(F)C(F)(F)C(F)(F)C(F)(F)C(F)(F)F [PFHpA, perfluoroheptanoic acid]
- half-life ([1]; human, Average serum half-life, population average, linear mixed model with original serum levels, 17 airport employees after end of drinking-water exposure): 62 days
- half-life ([1]; human, Half-life (95% CI), population average, model with original serum levels, age and sex as covariates): 62.1 days
- Constant elimination rate (95% CI) [1, 5]: 4.11 (3.13, 5.09) yearly
- half-life ([2]; subject 1, 5 samples): 110 days
- half-life ([2]; subject 2, 5 samples): 73 days
- half-life ([2]; subject 3, 5 samples): 146 days
- half-life ([2]; subject 4, 5 samples): 73 days
- half-life ([2]; subject 5, 5 samples): 183 days
- half-life ([2]; subject 6, 4 samples): 73 days
- half-life ([2]; subject 7, 5 samples): 36.5 days
- half-life ([2]; subject 8, 5 samples): 36.5 days
- half-life ([2]; subject 9, 5 samples): 36.5 days
- half-life ([2]; subject 10, 5 samples): 110 days
- half-life ([2]; subject 11, 5 samples): 110 days
- half-life ([2]; subject 12, 5 samples): 36.5 days
- half-life ([2]; subject 13, 5 samples): 36.5 days
- half-life ([2]; subject 14, 4 samples): 36.5 days
- half-life ([2]; subject 15, 5 samples): 73 days
- half-life ([2]; subject 16, 5 samples): 256 days
- half-life ([2]; subject 17, 5 samples): 36.5 days
- Elimination rate ([2]; subject 1, 5 samples): 2.1 yearly
- Elimination rate ([2]; subject 2, 5 samples): 3.7 yearly
- Elimination rate ([2]; subject 3, 5 samples): 1.7 yearly
- Elimination rate ([2]; subject 4, 5 samples): 3.2 yearly
- Elimination rate ([2]; subject 5, 5 samples): 1.3 yearly
- Elimination rate ([2]; subject 6, 4 samples): 4.1 yearly
- Elimination rate ([2]; subject 7, 5 samples): 4.6 yearly
- Elimination rate ([2]; subject 8, 5 samples): 5.4 yearly
- Elimination rate ([2]; subject 9, 5 samples): 7.8 yearly
- Elimination rate ([2]; subject 10, 5 samples): 2.2 yearly
- Elimination rate ([2]; subject 11, 5 samples): 2.6 yearly
- Elimination rate ([2]; subject 12, 5 samples): 6.7 yearly
- Elimination rate ([2]; subject 13, 5 samples): 5.4 yearly
- Elimination rate ([2]; subject 14, 4 samples): 6.6 yearly
- Elimination rate ([2]; subject 15, 5 samples): 3.9 yearly
- Elimination rate ([2]; subject 16, 5 samples): 0.9 yearly
- Elimination rate ([2]; subject 17, 5 samples): 5.2 yearly
- Personal average urine/serum ratio, median (range) [3]: 0.086 (0.018–0.32)
- Estimated half-life (geometric mean) ([4]; older females plus males): 1.0 y
- Estimated half-life (geometric mean) ([4]; young females): 0.82 y
- First-order apparent elimination half-life (geometric mean) ([4]; whole blood, five ski wax technicians, 7 months follow-up, ref Russell et al. 2015a): 70 days

SMILES: O=C(O)C(F)(F)C(F)(F)C(F)(F)C(F)(F)C(F)(F)F [PFHxA, perfluorohexanoic acid]
- Half-life (95% CI) [1, 5]: 1.63 (NA) year
- Individuals without decrement in serum concentration (no individual estimated half-life) ([2]; 5-month follow-up, 17 employees): 53%
- Elimination rate ([2]; subject 1, 5 samples): 0.2 yearly
- HL (half-life) ([2]; subject 1, 5 samples): 4.1 year
- Elimination rate ([2]; subject 2, 5 samples): −0.1 yearly
- Elimination rate ([2]; subject 3, 5 samples): 1.6 yearly
- HL (half-life) ([2]; subject 3, 5 samples): 0.4 year
- Elimination rate ([2]; subject 4, 5 samples): −0.6 yearly
- Elimination rate ([2]; subject 5, 5 samples): −1.7 yearly
- Elimination rate ([2]; subject 6, 4 samples): −1.6 yearly
- Elimination rate ([2]; subject 7, 5 samples): 1.5 yearly
- HL (half-life) ([2]; subject 7, 5 samples): 0.5 year
- Elimination rate ([2]; subject 8, 5 samples): −0.7 yearly
- Elimination rate ([2]; subject 9, 5 samples): −0.2 yearly
- Elimination rate ([2]; subject 10, 5 samples): 0.4 yearly
- HL (half-life) ([2]; subject 10, 5 samples): 1.9 year
- Elimination rate ([2]; subject 11, 5 samples): 2.8 yearly
- HL (half-life) ([2]; subject 11, 5 samples): 0.2 year
- Elimination rate ([2]; subject 12, 5 samples): −0.3 yearly
- Elimination rate ([2]; subject 13, 5 samples): −0.7 yearly
- Elimination rate ([2]; subject 14, 4 samples): −0.5 yearly
- Elimination rate ([2]; subject 15, 5 samples): 2.7 yearly
- HL (half-life) ([2]; subject 15, 5 samples): 0.3 year
- Elimination rate ([2]; subject 16, 5 samples): 1.1 yearly
- HL (half-life) ([2]; subject 16, 5 samples): 0.6 year
- Elimination rate ([2]; subject 17, 5 samples): 2.5 yearly
- HL (half-life) ([2]; subject 17, 5 samples): 0.3 year
- Apparent elimination half-life ([4]; whole blood, seven ski wax technicians, ref Russell et al. 2013): 32 days

SMILES: O=S(=O)(O)C(F)(F)C(F)(F)C(F)(F)C(F)(F)C(F)(F)F [PFPeS, perfluoropentane sulfonic acid]
- Half-life shorter than L-PFOS ([1]; human, in vivo): 4 times
- Constant elimination rate (95% CI) [1, 5]: 1.1 (0.68, 1.51) yearly
- Half-life (95% CI) [1, 5]: 0.63 (0.46, 1.01) year
- Constant elimination rate (95% CI) [1, 6]: 1.1 (0.68, 1.52) yearly
- Half-life (95% CI) [1, 6]: 0.63 (0.46, 1.01) year
- Elimination rate ([2]; subject 1, 5 samples): 0.7 yearly
- HL (half-life) ([2]; subject 1, 5 samples): 1.0 year
- Elimination rate ([2]; subject 2, 5 samples): 0.6 yearly
- HL (half-life) ([2]; subject 2, 5 samples): 1.2 year
- Elimination rate ([2]; subject 3, 5 samples): 0.7 yearly
- HL (half-life) ([2]; subject 3, 5 samples): 0.9 year
- Elimination rate ([2]; subject 4, 5 samples): 0.8 yearly
- HL (half-life) ([2]; subject 4, 5 samples): 0.8 year
- Elimination rate ([2]; subject 5, 5 samples): 0.4 yearly
- HL (half-life) ([2]; subject 5, 5 samples): 1.7 year
- Elimination rate ([2]; subject 6, 4 samples): 0.9 yearly
- HL (half-life) ([2]; subject 6, 4 samples): 0.7 year
- Elimination rate ([2]; subject 7, 5 samples): 0.7 yearly
- HL (half-life) ([2]; subject 7, 5 samples): 0.9 year
- Elimination rate ([2]; subject 8, 5 samples): 0.5 yearly
- HL (half-life) ([2]; subject 8, 5 samples): 1.4 year
- Elimination rate ([2]; subject 9, 5 samples): 0.7 yearly
- HL (half-life) ([2]; subject 9, 5 samples): 1.0 year
- Elimination rate ([2]; subject 10, 5 samples): 0.6 yearly
- HL (half-life) ([2]; subject 10, 5 samples): 1.2 year
- Elimination rate ([2]; subject 11, 5 samples): 2.0 yearly
- HL (half-life) ([2]; subject 11, 5 samples): 0.3 year
- Elimination rate ([2]; subject 12, 5 samples): 1.1 yearly
- HL (half-life) ([2]; subject 12, 5 samples): 0.6 year
- Elimination rate ([2]; subject 13, 5 samples): 0.8 yearly
- HL (half-life) ([2]; subject 13, 5 samples): 0.9 year
- Elimination rate ([2]; subject 14, 4 samples): 1.2 yearly
- HL (half-life) ([2]; subject 14, 4 samples): 0.6 year
- Elimination rate ([2]; subject 15, 5 samples): 2.5 yearly
- HL (half-life) ([2]; subject 15, 5 samples): 0.3 year
- Elimination rate ([2]; subject 16, 5 samples): 0.4 yearly
- HL (half-life) ([2]; subject 16, 5 samples): 1.6 year
- Elimination rate ([2]; subject 17, 5 samples): 2.4 yearly
- HL (half-life) ([2]; subject 17, 5 samples): 0.3 year
- Urine/serum ratio higher than L-PFOS ([3]; in vivo): 10 times
- Personal average urine/serum ratio, median (range) [3]: 0.0089 (0.0057–0.026)
- Average half-life [4]: 1.0 y

SMILES: O=S(=O)(O)C(F)(F)C(F)(F)C(F)(F)C(F)(F)C(F)(F)C(F)(F)C(F)(F)F [PFHpS, perfluoroheptane sulfonic acid]
- Average half-life longer than that of the PFCA with same number of carbon atoms ([1]; PFHpS vs PFHpA, PFOS vs PFOA): ~1.3 y
- Average serum half-life ([1]; population average, linear mixed model with original serum levels, 17 airport employees after end of drinking-water exposure): 1.46 y
- Constant elimination rate (95% CI) [1, 5]: 0.48 (0.11, 0.84) yearly
- Half-life (95% CI) [1, 5]: 1.46 (0.83, 6.25) year
- Constant elimination rate (95% CI) [1, 6]: 0.51 (0.12, 0.9) yearly
- Half-life (95% CI) [1, 6]: 1.35 (0.77, 5.71) year
- Reduction of half-life estimation after subtraction of background levels ([1]; sensitivity analysis vs model with original serum levels): 8%
- Elimination rate ([2]; subject 1, 5 samples): 0.5 yearly
- HL (half-life) ([2]; subject 1, 5 samples): 1.3 year
- Elimination rate ([2]; subject 2, 5 samples): 0.2 yearly
- HL (half-life) ([2]; subject 2, 5 samples): 3.4 year
- Elimination rate ([2]; subject 3, 5 samples): 0.2 yearly
- HL (half-life) ([2]; subject 3, 5 samples): 3.0 year
- Elimination rate ([2]; subject 4, 5 samples): 0.001 yearly
- Elimination rate ([2]; subject 5, 5 samples): −0.3 yearly
- Elimination rate ([2]; subject 6, 4 samples): 0.1 yearly
- HL (half-life) ([2]; subject 6, 4 samples): 6.1 year
- Elimination rate ([2]; subject 7, 5 samples): −0.04 yearly
- Elimination rate ([2]; subject 8, 5 samples): −0.6 yearly
- Elimination rate ([2]; subject 9, 5 samples): 0.05 yearly
- HL (half-life) ([2]; subject 9, 5 samples): 15 year
- Elimination rate ([2]; subject 10, 5 samples): 0.4 yearly
- HL (half-life) ([2]; subject 10, 5 samples): 1.8 year
- Elimination rate ([2]; subject 11, 5 samples): 1.7 yearly
- HL (half-life) ([2]; subject 11, 5 samples): 0.4 year
- Elimination rate ([2]; subject 12, 5 samples): 0.6 yearly
- HL (half-life) ([2]; subject 12, 5 samples): 1.1 year
- Elimination rate ([2]; subject 13, 5 samples): −0.2 yearly
- Elimination rate ([2]; subject 14, 4 samples): 1.0 yearly
- HL (half-life) ([2]; subject 14, 4 samples): 0.7 year
- Elimination rate ([2]; subject 15, 5 samples): 1.6 yearly
- HL (half-life) ([2]; subject 15, 5 samples): 0.4 year
- Elimination rate ([2]; subject 16, 5 samples): 0.1 yearly
- HL (half-life) ([2]; subject 16, 5 samples): 12 year
- Elimination rate ([2]; subject 17, 5 samples): 1.7 yearly
- HL (half-life) ([2]; subject 17, 5 samples): 0.4 year
- Average half-life [4]: 4.7 y
